In US9346854B2, “Anti-inflammatory peptides and use thereof” (Yeda Research and Development Co. Ltd., priority 2012, dated 2016):
“Also recorded” adds a separate entry of the source. Where two headings read alike, the source gives them in different places. No end group written: not given here.

Key:
S. aureus 6538P = type: cell-based
Experimental: (§1) The antibacterial activity of the peptides was examined in sterile 96-well plates (Nunc F96 microtiter plates) in a final volume of 100 μl, as follows. Aliquots (50 μl) of a suspension containing bacteria at a concentration of 10^6 colony-forming units/ml in culture medium (LB medium) were added to 50 μl of peptide serially diluted in culture medium (100 μM-0.78 μM). Inhibition of growth was determined by eye after an incubation of 18-20 h at 37° C. Antibacterial activities were expressed as the minimal inhibitory concentration, the concentration at which 100% inhibition of growth was observed after 18-20 h of incubation. In these the effect of the peptides on E. coli (ATCC:25922) and S. aureus (ATCC:6538P) was tested.

E. coli 25922 = type: cell-based
Experimental: as §1

TLR4 activation by LPS = experiment: TNFα secretion by RAW264.7 macrophages stimulated with LPS; type: cell-based, murine; details: for inhibition of LPS activation of macrophages (TNFα secretion), in words: LPS 10 ng/ml, peptide 20 μM (FIGS. 1A, 2)
Experimental: (§2) All in vitro assays were performed on RAW264.7 murine macrophages (ATCC-TIB71). Cells were grown in DMEM supplemented with 10% FBS, L-glutamine, sodium pyruvate, non-essential amino acids and antibiotics (Biological Industries, Beit Haemek, Israel). Incubator was set on 37° C. with a humidified atmosphere containing 5% CO2.
(§3) 2×10^5 cells per well were cultured overnight in a 96-wells plate. The following day, the media were replaced by fresh DMEM, including all supplements. Peptides were dissolved in DMSO and added to the cells in different concentrations. Final concentration of DMSO was 1% for all groups. Cells were incubated with the peptide for 2 hours, then LPS (TLR4 activator) or LTA (TLR2 activator) was added to the cells at 10 ng/ml or 500 ng/ml, respectively. The cells were further incubated for 5 hrs at 37° C., after which samples of the media from each treatment were collected and stored at −20° C. TNFα concentration in each sample was evaluated using a mouse TNFα enzyme-linked immunosorbent assay kit (Biosource™ ELISA, Invitorgen), according to the manufacturer's protocol. All experiments were done in triplicates.

[1] = LPS binding assay with NBD-labeled peptides; details: NBD-labeled peptide affinity to LPS
Experimental: NBD-labeled peptides (50 μl, 2 μM, PBS^−/− 2% DMSO) were added to different concentrations of LPS (50 μl PBS^−/−) in a opaque black 96 well plate. After 10 minutes of incubation at room temperature, the fluorescence was measured using an excitation of 467 nm and emission of 530 nm. The data were plotted and Kd and Bmax values obtained using NLLSQ analysis.

RAW264.7 macrophages = type: cell-based, murine; details: for IC50: 2 h; for LC50 (cytotoxicity): toxicity, XTT, 2 hours incubation (method: LC50), read-out: IC50 macrophages RAW264.7
Experimental: as §2
1×10^4 cells per well were grown overnight on a 96-well plate. The following day, the media were replaced with 90 μl fresh culture medium and 10 μl solution buffer containing different concentrations of the different peptides. Peptide concentrations ranged from 0.78-100 μM. The cells were then incubated for 2 hours before adding to each well 50 μl of 2,3-bis-2H-tetrazolium-5-carboxanilide inner salt (XTT) reaction solution (Biological Industries). Viability was determined as described previously (Makovitzki et al. Cancer Res 69, 3458-63, 2009; Papo et al. 2006). The LC50 (the concentration at which 50% of the cells die) for each peptide was obtained from the dose-dependent cell viability curves.

RBL cells = type: cell-based, rat
TLR2 activation by LTA = experiment: TNFα secretion by RAW264.7 macrophages stimulated with LTA; type: cell-based, murine; details: LTA 500 ng/ml; peptide 20 μM (FIG. 1A)
Experimental: as §2, §3

Balb/c mice = experiment: Antigen (OVA) induced anaphylactic shock; type: in vivo; details: for Survival of anaphylactic shock (%): i.v. 10-15 mg/kg, 30-45 minutes prior to soluble OVA challenge
Experimental: The inhibitory capacity of the Kn(AL)nKn peptides was tested in the most rigorous manner for inhibition of otherwise fatal anaphylaxis. In this model, Balb/c mice were immunized by an i.p. injection of 100 μg OVA in 5 mg Alum and 1.5 μg pertusis, a protocol that favors IgE-type of response. Three weeks later the immunized mice received an i.v. injection of soluble OVA (3.5-5 μg), resulting in a rapid and aggressive anaphylactic shock. In this specific model, the immunized mice die within 10-20 minutes after the systemic (i.v.) OVA injection.
To test the ability of the peptides of the invention to inhibit anaphylactic shock formation, an i.v. injection of the K2(AL)8K2 peptide at 10-15 mg/kg was administered, 30-45 minutes prior to the soluble OVA challenge. Strikingly, this single injection rescued 87% of the sensitized mice (Table 7). […] In several mice that were protected by the K2(AL)8K2 peptide, the protection lasted for at least 2 days. Peptide treated mice died of anaphylactic shock only after systemic injection of a very high dose of OVA. Still, the exact conditions for optimum protective activity need to be validated.

C57BL mice = experiment: In vivo toxicity in mice; details: 100 mg/kg i.p.
Experimental: Toxicity was tested by intraperitoneal injection of K2(AL)8K2 (100 mg/kg in 400 μl saline) in female C57B1 mice (n=2). Mice were continuously observed for 1 hour immediately following injection and once per day for 7 days. To examine the effect of our peptides on acute septic shock driven by LPS hyperactivation of TLR4 we have used murine models as described before (Zheng et al. Int Immunopharmacol 10, 1209-19, 2010; Arima et al, 2005). Briefly, 12 weeks old C57 Black female mice were treated with 100 ng of LPS injected IP in a saline solution (200 μl, pH 6.5) containing 200 mg/ml of D-galactosamine (Calbiochem). Treated mice received one IP injection of 10 mg/kg peptide dissolved in saline (200 μl) following the LPS injection. In the second model heat-killed bacteria were used to induce a lethal septic shock. E. coli cells were grown to a mid log phase (OD=0.5) at 37° C., cooled on ice, and centrifuged at 3500 rpm for 10 minutes at 4° C. The cells were re-suspended in saline for a concentration of 2×10^9 cells in 200 μl and heated at 95° C. for 30 minutes. Each animal received an IP injection of 2×10^9 cells in 200 μl saline followed by injection of 10 mg/kg peptide dissolved in saline (200 μl). Animals were monitored for survival and for signs of sepsis for the next 14 days after LPS injection. Peptides used as the acetic acid salts for in vivo experiments. […]

RBL-2H3 cells = experiment: IgE and DNP-BSA mediated degranulation (β-hexoseaminidase release); type: cell-based, rat; details: for Inhibition of Degranulation (%): peptide concentration 20 μM, derived from FIG. 9A
Experimental: In order to study the specific effect of the peptides of the invention on direct IgE mediated degranulation, the rat basophilic cell line (RBL-2H3) was used. This cell line expresses high levels of surface IgE receptor that binds IgE with high affinity (FcεRI). Upon adding an allergen (IgE antigen) there is a cross-linking of adjacent FcεRs that results in degranulation and release of histamine. Degranulation was measured as release of intracellular β-hexoseaminidase (Nunomura et al., Int Immunol 17, 685-94, 2005).
In this assay system, RBL cells were incubated with the DNP-specific murine monoclonal IgE SPE7 (Eshhar et al., J Immunol 124:775, 1980) for 2.5 hours. The cells were washed and centrifuged and then further incubated with the DNP-BSA antigen that crossed-link the FcεRI bound IgE. Next, extracellular hexoseaminidase levels were evaluated by their ability to hydrolyze the 4-nitrophenyl-N-acetyl-β-D-glucosaminide substrate which results in the accumulation of a colored product. The tested peptides (see Table 5) were added at different concentrations and stages of the assay and tested for their ability to inhibit this reaction.
In the first set of experiments, RBLs were incubated with different concentrations of the (AL)6AK2 peptide or irrelevant control peptide (alpha subunit peptide) in the presence of IgE. Following incubation, the cells were washed and DNP10-BSA with peptide was added to crosslink adjacent FcεRI (FIG. 6). Following incubation, the cells were washed and suspended in the degranulation medium for either 30 (FIG. 6A) or 60 min. (FIG. 6B).

[2] = 100% inhibition of growth after 18-20 h

| Substance | MIC S. aureus 6538P (S. aureus 6538P; 6538P) [µM] | MIC E. coli 25922 (E. coli 25922; 25922) [µM] | Kd [1] [µM] | IC50 (RAW264.7 macrophages) [µM] | further results |
| --- | --- | --- | --- | --- | --- |
| KALALALKALALKALALALK-NH2 [K(AL)3K(AL)2K(AL)3K] | 12.5 | 25 | 9.6 | 25 | inhibition of LPS activation of macrophages (TNFα secretion), in words (TLR4 activation by LPS): highly active |
| ALALALALALALAKK-NH2 [(AL)6AK2, ALALALALALALAKK] | >100 | >100 | – | > 100 | killing or growth inhibition of RBL cells (RBL cells): did not kill or inhibited the growth |
| KALALALALALALAK-NH2 [K(AL)6AK] | >100 | >100 | – | > 100 | – |
| KKALALALKK-NH2 [K2(AL)3K2, KKALALALKK] | >100 | >100 | 10 to 15 | > 100 | inhibition of LPS activation of macrophages (TNFα secretion), in words (TLR4 activation by LPS): inactive |
| KALALALALALALALALALK-NH2 [K(AL)9K] | >100 | >100 | – | > 100 | – |
| KKALALALALALALALALKK [4D-K2(AL)8K2] | – | – | 15.6 | – | MIC S. aureus 6538P (S. aureus 6538P; [2]): 100 µM; MIC E. coli 25922 (E. coli 25922; [2]): 100 µM; LC50 (cytotoxicity) (RAW264.7 macrophages): > 100 µM |
| KKAVAVAVAVAVAVAVAVKK-NH2 [K2(AV)8K2] | >100 | >100 | – | 90 | inhibition of LPS activation of macrophages (TNFα secretion), in words (TLR4 activation by LPS): medium inhibition; also recorded: lower activity; inhibition of LTA activation of macrophages (TNFα secretion), in words (TLR2 activation by LTA): good inhibition |
| KKALALALALALALALALALALAKK [K2(AL)10AK2] | – | – | – | – | Survival of anaphylactic shock (%) (Balb/c mice): 50% |
| ALALALALALALALK-NH2 [(AL)7K] | – | – | – | – | MIC S. aureus 6538P (S. aureus 6538P; [2]): >100 µM; MIC E. coli 25922 (E. coli 25922; [2]): >100 µM; LC50 (cytotoxicity) (RAW264.7 macrophages): > 100 µM |
| KKALALALALALAKK-NH2 [K2(AL)5AK2, KKALALALALALAKK] | >100 | >100 | 2.7 | > 100 | inhibition of LPS activation of macrophages (TNFα secretion), in words (TLR4 activation by LPS): lower activity; inhibition (LPS neutralization) (TLR4 activation by LPS; peptide 20 μM): 50% |
| KKALALALALALALALALKK-NH2 [K2(AL)8K2] | >100 | >100 | – | > 100 | adverse effects in vivo (C57BL mice): not adversely affected |
| ALALALALALALALALALKK-NH2 [(AL)9K2] | >100 | >100 | 4.4 | > 100 | Inhibition of Degranulation (%) (RBL-2H3 cells): 30% |
| ALALALALALALALALALKK [4D-(AL)9K2] | – | – | – | – | MIC S. aureus 6538P (S. aureus 6538P; [2]): >100 µM; MIC E. coli 25922 (E. coli 25922; [2]): >100 µM; LC50 (cytotoxicity) (RAW264.7 macrophages): 50 µM |
| LALALALALALALALALALK-NH2 [L(AL)9K] | – | – | – | – | MIC S. aureus 6538P (S. aureus 6538P; [2]): >100 µM; MIC E. coli 25922 (E. coli 25922; [2]): >100 µM; inhibition of IgE/DNP-BSA degranulation, in words (RBL-2H3 cells): no inhibition; Inhibition of Degranulation (%) (RBL-2H3 cells): 0%; LC50 (cytotoxicity) (RAW264.7 macrophages): > 100 µM; Survival of anaphylactic shock (%) (Balb/c mice): 0%; protection from anaphylactic shock, in words (Balb/c mice; mouse, in vivo): failed also to give any protection |
